# Reference: patent publication EP3372592A1, “SOLID FORMS OF LESINURAD AMINE SALTS” (Zentiva, k.s., priority 2017, dated 2018)
# How the values were obtained:
# [1] = Determining the dissolution rate using the true dissolution method (Sirius inForm, pressed disks); assay type: physicochemical; settings: for dissolution rate: true dissolution disks d = 3 mm, 40 ml acetate-phosphate buffer pH 6.8, 100 rpm, UV/Vis; for times more soluble than crystalline form 2 of lesinurad free acid: ratio of dissolution rates measured under identical conditions
# Protocol: The dissolution rate was measured using a Sirius inForm dissolution device. Disks for true dissolution with the surface area available for dissolution of 0.071 cm^2 (d = 0.3 cm) were prepared using a Specac press. The pressing time was 2x2 minutes at the pressing pressure of 100 kg. The dissolution was carried out in 40 ml of a solution at pH 6.8 (38 ml of 150mM NaCl + 2 ml of 150mM NaCl, 100mM CH3COONa, 100mM NaH2PO4), at the constant speed of 100 rpm. Samples were drawn at 5-second intervals and the concentration of dissolved lesinurad was determined by means of an integrated UV/Vis spectrophotometric probe in the wavelength range of 230-400 nm. Disks for measuring true dissolution (d = 3 mm) were produced from the prepared solid forms of lesinurad, i.e. free acid form 2 (reference form), tromethamine salt form I and diethylamine salt, and solid form of lesinurad with urea (form I), with the use of a press. The dissolution was carried out in 40 ml of an acetate-phosphate buffer at pH 6,8 (150mM NaCl, 5mM CH3COONa, 5mM NaH2PO4), at the constant stirring speed of 100 rpm. Samples were drawn at 5-second intervals and the concentration of dissolved lesinurad was determined by means of a UV/Vis spectrophotometer.
# [2] = Chemical and polymorphic stability test of the crystalline form; assay type: physicochemical
# Protocol: The prepared crystalline form I was subjected to tests from the point of view of chemical and polymorphic stability. […] The same results were also obtained after 3 days at 80°C.
Structure (SMILES),dissolution rate [1] [mg/min/cm^2],dissolution rate ([1]; listed as crystalline form 2 of lesinurad free acid) [mg/min/cm^2],times more soluble than crystalline form 2 of lesinurad free acid ([1]; listed as salt with diethylamine) [times],dissolution rate ([1]; listed as lesinurad with dimethylamine) [mg/min/cm^2],times more soluble than crystalline form 2 of lesinurad free acid ([1]; listed as solid form of lesinurad with tromethamine),dissolution rate ([1]; listed as lesinurad with tromethamine) [mg/min/cm^2],chemical and polymorphic stability ([2]; after 3 months at 40°C / 75% humidity),chemical and polymorphic stability ([2]; after 3 days at 80°C)
"O=C(O)CSc1nnc(Br)n1-c1ccc(C2CC2)c2ccccc12 [lesinurad free acid (form 2), 2-(5-bromo-4-(1-cyclopropylnaphtalen-4-yl)-4H-1,2,4-triazol-3-ylthio)acetic acid, reference compound]",0.42,0.42,–,–,–,–,–,–
O=C(O)CSc1nnc(Br)n1-c1ccc(C2CC2)c2ccccc12 [lesinurad with diethylamine],21.58,–,~50,21.58,–,–,–,–
O=C(O)CSc1nnc(Br)n1-c1ccc(C2CC2)c2ccccc12 [lesinurad with tromethamine (form I)],7.44,–,–,–,about 17 times,7.44,did not show any signs of chemical degradation or transition to a different polymorphic form,same results
